{"source": "ChEMBL document CHEMBL1201862", "about": "“PubChem BioAssay data set” (2004)", "key": {"[1]": {"molecular_target": "Voltage-gated inwardly rectifying potassium channel KCNH2 (Homo sapiens, UniProt Q12809)", "sequence (Q12809 whole entry)": "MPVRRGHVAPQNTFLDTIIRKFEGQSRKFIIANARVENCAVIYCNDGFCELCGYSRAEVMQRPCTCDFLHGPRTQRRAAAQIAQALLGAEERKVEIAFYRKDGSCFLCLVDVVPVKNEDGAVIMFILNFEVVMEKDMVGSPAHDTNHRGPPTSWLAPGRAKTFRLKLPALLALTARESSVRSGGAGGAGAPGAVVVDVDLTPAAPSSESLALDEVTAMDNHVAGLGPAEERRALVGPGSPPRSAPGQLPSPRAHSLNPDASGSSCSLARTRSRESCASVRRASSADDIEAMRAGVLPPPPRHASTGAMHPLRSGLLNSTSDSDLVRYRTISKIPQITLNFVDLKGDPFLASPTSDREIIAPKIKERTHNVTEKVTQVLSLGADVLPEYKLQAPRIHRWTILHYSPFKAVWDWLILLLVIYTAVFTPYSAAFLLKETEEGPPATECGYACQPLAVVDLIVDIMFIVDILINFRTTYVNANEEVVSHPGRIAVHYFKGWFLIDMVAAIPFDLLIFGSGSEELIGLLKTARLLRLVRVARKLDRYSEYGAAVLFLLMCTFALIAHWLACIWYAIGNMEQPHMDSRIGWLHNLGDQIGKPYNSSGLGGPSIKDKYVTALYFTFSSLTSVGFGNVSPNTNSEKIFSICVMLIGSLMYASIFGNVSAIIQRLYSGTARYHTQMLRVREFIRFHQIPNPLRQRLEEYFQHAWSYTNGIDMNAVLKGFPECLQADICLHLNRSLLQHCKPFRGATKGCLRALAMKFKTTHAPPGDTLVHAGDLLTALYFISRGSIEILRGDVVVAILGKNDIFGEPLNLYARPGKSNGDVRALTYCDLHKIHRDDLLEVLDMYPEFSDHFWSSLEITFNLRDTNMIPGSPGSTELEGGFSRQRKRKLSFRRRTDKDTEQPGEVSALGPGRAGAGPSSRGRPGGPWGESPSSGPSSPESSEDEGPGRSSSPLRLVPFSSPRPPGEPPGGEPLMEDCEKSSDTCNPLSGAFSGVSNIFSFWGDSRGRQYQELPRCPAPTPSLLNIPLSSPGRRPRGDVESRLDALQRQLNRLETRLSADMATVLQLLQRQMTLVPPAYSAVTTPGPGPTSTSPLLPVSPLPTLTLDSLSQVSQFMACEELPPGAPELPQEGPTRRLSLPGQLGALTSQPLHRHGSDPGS", "details": "Potency"}, "[2]": {"molecular_target": "T1, Aryl hydrocarbon receptor (Homo sapiens, UniProt P35869)", "T1 sequence (P35869 whole entry)": "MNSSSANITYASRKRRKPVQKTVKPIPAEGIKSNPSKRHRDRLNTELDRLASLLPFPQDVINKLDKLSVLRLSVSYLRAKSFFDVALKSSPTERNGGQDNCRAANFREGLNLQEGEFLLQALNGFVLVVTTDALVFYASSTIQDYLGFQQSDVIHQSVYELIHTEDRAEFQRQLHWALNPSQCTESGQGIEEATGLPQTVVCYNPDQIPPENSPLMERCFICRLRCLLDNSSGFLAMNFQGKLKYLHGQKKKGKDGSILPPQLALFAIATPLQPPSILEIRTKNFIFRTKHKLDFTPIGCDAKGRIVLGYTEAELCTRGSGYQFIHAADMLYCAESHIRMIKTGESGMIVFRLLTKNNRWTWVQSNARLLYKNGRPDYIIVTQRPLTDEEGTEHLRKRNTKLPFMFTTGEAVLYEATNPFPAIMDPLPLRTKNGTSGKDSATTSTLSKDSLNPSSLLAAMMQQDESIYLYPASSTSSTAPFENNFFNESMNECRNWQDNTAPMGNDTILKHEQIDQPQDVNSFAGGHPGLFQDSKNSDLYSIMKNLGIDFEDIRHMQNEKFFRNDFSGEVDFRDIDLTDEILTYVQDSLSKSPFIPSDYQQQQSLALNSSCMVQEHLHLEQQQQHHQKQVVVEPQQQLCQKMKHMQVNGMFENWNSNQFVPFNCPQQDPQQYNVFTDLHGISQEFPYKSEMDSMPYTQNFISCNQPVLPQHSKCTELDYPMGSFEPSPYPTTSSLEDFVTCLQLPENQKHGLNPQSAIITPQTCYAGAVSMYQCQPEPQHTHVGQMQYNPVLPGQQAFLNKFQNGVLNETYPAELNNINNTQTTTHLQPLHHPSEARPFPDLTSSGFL", "details": "Potency"}, "HeLa": {"tested_on": "HeLa", "assay": "ATP-based viability loss in HeLa cells – cell-based, CellTiter-Glo luminescence, cherry-pick samples, cytotoxicity control for MITF activator project, dose response (AID 540259)", "assay_type": "functional", "details": "Homo sapiens"}, "[3]": {"assay": "MIN6 cell viability loss – mouse insulinoma, cytotoxicity control, dose response (AID 2122);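 note: confirmatory high-throughput counterscreen run to flag cytotoxic compounds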", "assay_type": "functional"}, "Nonstructural protein 1": {"molecular_target": "Nonstructural protein 1 (Influenza A virus, UniProt Q194T2)", "sequence (Q194T2 whole entry)": "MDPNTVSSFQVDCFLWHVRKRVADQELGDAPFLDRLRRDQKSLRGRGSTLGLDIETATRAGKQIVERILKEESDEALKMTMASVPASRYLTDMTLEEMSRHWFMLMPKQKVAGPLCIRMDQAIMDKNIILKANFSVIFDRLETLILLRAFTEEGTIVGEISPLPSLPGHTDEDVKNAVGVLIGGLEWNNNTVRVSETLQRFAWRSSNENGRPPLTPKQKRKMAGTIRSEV", "assay_type": "functional, Influenza A virus (A/California/07/2009(H1N1))"}, "[4]": {"molecular_target": "T2, Polyadenylate-binding protein 1 (Homo sapiens, UniProt P11940)", "T2 sequence (P11940 whole entry)": "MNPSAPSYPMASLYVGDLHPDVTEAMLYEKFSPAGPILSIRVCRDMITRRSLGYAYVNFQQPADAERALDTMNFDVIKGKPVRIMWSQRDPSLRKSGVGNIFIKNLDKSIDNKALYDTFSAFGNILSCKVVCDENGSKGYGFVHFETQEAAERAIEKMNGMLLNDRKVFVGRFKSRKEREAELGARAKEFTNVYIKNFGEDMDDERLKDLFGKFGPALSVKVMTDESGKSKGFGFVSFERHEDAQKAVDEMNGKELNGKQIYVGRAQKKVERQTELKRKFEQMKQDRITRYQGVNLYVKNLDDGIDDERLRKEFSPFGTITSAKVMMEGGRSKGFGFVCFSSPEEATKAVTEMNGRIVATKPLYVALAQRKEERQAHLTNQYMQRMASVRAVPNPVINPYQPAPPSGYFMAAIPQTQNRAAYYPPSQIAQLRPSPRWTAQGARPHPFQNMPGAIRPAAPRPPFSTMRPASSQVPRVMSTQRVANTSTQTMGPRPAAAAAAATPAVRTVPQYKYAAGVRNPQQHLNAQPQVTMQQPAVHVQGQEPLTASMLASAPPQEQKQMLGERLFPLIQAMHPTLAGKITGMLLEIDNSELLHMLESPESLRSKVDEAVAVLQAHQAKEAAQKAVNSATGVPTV", "assay": "MLLE binding blockers, Cy5 peptide tracer – biochemical, fluorescence polarization, Cy5-PAM2 peptide, secondary, miRNA deadenylation inhibitor project, dose response (AID 602260)", "assay_type": "functional", "details": "read-out: IC50_Mean"}, "[5]": {"assay": "decrease of insulin promoter-GFP reporter – imaging, high-content screening, mouse beta cells (AID 1628)", "assay_type": "functional", "details": "MIN6"}, "[6]": {"molecular_target": "T2, Polyadenylate-binding protein 1", "assay": "MLLE domain peptide-binding blockers, IC50 – biochemical, fluorescence polarization, FITC-PAM2 peptide, dose response (AID 602259)", "assay_type": "functional", "details": "read-out: IC50_Mean"}, "Beta Lactamase": {"molecular_target": "Beta Lactamase (Pseudomonas aeruginosa, UniProt Q932Y6)", "sequence (Q932Y6 whole entry)": "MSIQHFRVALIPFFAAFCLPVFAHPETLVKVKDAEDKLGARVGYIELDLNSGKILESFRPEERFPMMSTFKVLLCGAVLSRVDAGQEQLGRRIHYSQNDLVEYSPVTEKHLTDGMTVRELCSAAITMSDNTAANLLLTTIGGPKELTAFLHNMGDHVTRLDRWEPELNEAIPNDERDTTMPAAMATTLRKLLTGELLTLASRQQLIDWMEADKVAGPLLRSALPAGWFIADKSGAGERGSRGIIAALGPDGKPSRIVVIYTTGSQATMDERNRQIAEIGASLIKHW", "assay": "BLA reporter interference, concentration series – BLA reporter cells, FRET fluorescence, artefact control for TLR9-MyD88 binding inhibitor project, dose response (AID 588341);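 note: cell based assay in CHO-K1 cells stably expressing beta-lactamase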", "assay_type": "cell-based"}, "CHO": {"tested_on": "CHO", "assay": "CHO cell viability loss, potency – luminescence, cytotoxicity control for TLR9-MyD88 binding inhibitor project, dose response (AID 588339);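 note: CHO cells stably coexpressing TLR9 and MyD88 fusions from primary screen; compound exposure lasted 48 hours before viability readout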", "assay_type": "functional, cell-based, hamster", "details": "Cricetulus griseus"}, "[7]": {"molecular_target": "Induced myeloid leukemia cell differentiation protein Mcl-1 (Homo sapiens, UniProt Q07820)", "sequence (Q07820 whole entry)": "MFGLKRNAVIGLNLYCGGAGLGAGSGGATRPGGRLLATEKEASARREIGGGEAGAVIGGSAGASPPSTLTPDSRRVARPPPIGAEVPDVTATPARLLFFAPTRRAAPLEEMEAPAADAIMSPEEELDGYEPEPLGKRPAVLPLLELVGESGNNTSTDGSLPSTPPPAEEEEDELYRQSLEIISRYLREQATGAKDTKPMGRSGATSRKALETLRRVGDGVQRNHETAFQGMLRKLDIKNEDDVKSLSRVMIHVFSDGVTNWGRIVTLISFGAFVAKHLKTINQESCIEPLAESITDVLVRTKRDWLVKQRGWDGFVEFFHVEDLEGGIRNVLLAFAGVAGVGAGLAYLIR", "assay_type": "functional"}, "[8]": {"assay": "NIH-3T3 fibroblast cytotoxicity, dose response, cytotoxicity control, cell-based, fluorescence, Alamar Blue, secondary assay (AID 2327);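 note: NIH-3T3 mouse fibroblasts cultured with fluconazole at 8 µg/mL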", "assay_type": "functional"}, "Vero [9]": {"tested_on": "Vero", "assay": "viability of Vero cells under compound – cytotoxicity control for flavivirus capping enzyme inhibitors (AID 588742)", "assay_type": "functional", "details": "Chlorocebus sabaeus"}, "[10]": {"assay": "luciferase reporter signal suppression in cells – H4 neuroglioma cells, luminescence, dose response (AID 1990)", "assay_type": "functional, cell-based"}, "[11]": {"assay": "alpha-synuclein stem-loop luciferase translation blockers – H4 neuroglioma cells, luminescence, confirmation (AID 1988)", "assay_type": "functional, cell-based"}, "[12]": {"assay": "Luminescence Cell-Based Dose Response HTS to Identify Inhibitors of 5'UTR Stem-Loop Driven Prion Protein mRNA Translation in H4 Neuroglioblastoma Cells. [Related pubchem assays: 1827 (Project Summary), 1813 (Primary HTS)]", "assay_type": "functional"}, "Vero [13]": {"tested_on": "Vero", "assay": "cells", "assay_type": "functional", "details": "Chlorocebus sabaeus"}, "Streptococcus": {"tested_on": "Streptococcus", "assay": "GAS UMAA2166 growth inhibition – luminescence, BacTiterGlo, counter-screen for streptokinase expression inhibitor project, dose response (AID 1915);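 note: potency for reduction of bacterial viability or growth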", "assay_type": "functional, organism-based"}, "[14]": {"molecular_target": "ATP-dependent molecular chaperone HSP82 (Candida albicans (strain WO-1) (Yeast), UniProt C4YTQ8)", "sequence (C4YTQ8 whole entry)": "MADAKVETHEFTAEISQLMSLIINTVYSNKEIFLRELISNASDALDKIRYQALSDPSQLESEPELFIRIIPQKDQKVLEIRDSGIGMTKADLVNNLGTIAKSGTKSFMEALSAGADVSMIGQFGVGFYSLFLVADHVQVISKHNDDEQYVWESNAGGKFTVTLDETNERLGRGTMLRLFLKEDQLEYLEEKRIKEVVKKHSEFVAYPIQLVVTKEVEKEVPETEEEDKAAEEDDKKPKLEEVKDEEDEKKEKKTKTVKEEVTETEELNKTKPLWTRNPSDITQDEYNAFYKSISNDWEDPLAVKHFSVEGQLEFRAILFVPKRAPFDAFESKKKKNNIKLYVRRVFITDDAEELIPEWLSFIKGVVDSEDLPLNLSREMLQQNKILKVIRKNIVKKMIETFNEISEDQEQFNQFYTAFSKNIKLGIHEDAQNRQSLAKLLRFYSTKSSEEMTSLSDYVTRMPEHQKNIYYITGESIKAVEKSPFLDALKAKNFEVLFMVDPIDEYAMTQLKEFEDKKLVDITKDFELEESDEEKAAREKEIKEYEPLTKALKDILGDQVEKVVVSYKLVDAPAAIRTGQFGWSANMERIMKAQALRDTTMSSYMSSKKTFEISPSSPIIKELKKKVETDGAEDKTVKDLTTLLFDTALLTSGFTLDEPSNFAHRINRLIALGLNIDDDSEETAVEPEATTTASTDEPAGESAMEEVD", "assay": "steroid-induced GRE reporter decrease in yeast – S. cerevisiae, luminescence, Hsp90 inhibitor project, dose response (AID 2400);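 note: beta-galactosidase luminescence from glucocorticoid response element reporter as proxy for Hsp90 function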", "assay_type": "functional, cell-based"}, "[15]": {"tested_on": "Streptococcus sp. 'group A'", "assay": "Streptococcus pyogenes SK(-)GAS viability under kanamycin – luminescence, BacTiterGlo, confirmation, counter-screen for streptokinase expression inhibitor project, dose response (AID 1900)", "assay_type": "functional, organism-based"}, "[16]": {"molecular_target": "T3, Serine/threonine-protein phosphatase (Candida dubliniensis (strain CD36 / CBS 7987 / NCPF 3949 / NRRLY-17841) (Yeast), UniProt B9W6M3)", "T3 sequence (B9W6M3 whole entry)": "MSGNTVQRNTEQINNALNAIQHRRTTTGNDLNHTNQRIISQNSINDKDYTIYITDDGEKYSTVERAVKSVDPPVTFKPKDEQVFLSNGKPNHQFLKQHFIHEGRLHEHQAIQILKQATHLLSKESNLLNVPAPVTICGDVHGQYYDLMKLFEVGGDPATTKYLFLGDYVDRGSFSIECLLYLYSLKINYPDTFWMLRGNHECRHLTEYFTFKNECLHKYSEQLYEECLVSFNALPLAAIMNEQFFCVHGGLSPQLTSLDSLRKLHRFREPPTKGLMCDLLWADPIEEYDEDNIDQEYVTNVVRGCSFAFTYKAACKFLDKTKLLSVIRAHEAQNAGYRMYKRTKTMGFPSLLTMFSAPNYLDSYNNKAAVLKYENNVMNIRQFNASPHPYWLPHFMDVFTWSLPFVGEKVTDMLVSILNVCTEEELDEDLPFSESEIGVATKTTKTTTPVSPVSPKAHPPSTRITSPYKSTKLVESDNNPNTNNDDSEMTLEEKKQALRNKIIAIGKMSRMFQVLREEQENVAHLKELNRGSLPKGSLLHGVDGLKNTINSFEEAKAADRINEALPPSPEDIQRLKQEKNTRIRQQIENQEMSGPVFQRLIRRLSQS", "assay": "blockers of CaCl2-induced CDRE-lacZ signaling – S. cerevisiae, luminescence, secondary, dose response (AID 2388);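 note: yeast reporter cells carrying a calcineurin-responsive lacZ construct stimulated with calcium chloride; luminescent beta-galactosidase reporter signal in whole cells rather than isolated phosphatase activity; potency for inhibition where a drop in reporter signal means calcineurin blockade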", "assay_type": "functional, cell-based"}, "[17]": {"assay": "fluconazole-exposed Candida albicans growth modulators – fluorescence, retest, confirmation (AID 2467)", "assay_type": "functional, cell-based"}, "[18]": {"molecular_target": "Latent membrane protein 1 (Human herpesvirus 4 (strain B95-8), UniProt P03230)", "sequence (P03230 whole entry)": "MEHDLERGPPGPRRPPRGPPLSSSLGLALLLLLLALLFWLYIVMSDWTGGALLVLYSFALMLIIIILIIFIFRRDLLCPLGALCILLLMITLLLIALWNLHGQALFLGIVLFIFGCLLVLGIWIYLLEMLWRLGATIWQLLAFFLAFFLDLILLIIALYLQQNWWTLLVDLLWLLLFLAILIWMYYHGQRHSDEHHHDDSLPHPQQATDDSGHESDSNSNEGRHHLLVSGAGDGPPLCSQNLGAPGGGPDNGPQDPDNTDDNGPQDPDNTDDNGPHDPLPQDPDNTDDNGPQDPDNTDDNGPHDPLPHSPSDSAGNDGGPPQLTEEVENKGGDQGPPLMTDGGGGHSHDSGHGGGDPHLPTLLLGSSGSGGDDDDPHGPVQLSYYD", "assay": "LMP1 TES1 pathway selectivity over dsRED control – imaging, HEK293T, dual-color eGFP/dsRED, cherry-picks, selectivity assay for LMP1 NF-kB inhibitor project, dose response (AID 588398)", "assay_type": "functional, cell-based"}, "HEK293": {"tested_on": "HEK293", "assay": "EBV LMP1 TES2 canonical NF-kB signalling blockers – cell-based, HEK293, luciferase, cherry-pick, dose response (AID 588343)", "assay_type": "functional", "details": "Homo sapiens"}, "[19]": {"assay": "Luminescence Cell-Based Dose Confirmation HTS to Identify Inhibitors of Platelet Dense Granule Release. [Related pubchem assays: 1663 (Primary HTS), 1678 (Summary of Project)]", "assay_type": "functional"}, "[20]": {"molecular_target": "Luciferin 4-monooxygenase (Photinus pyralis, UniProt P08659)", "sequence (P08659 whole entry)": "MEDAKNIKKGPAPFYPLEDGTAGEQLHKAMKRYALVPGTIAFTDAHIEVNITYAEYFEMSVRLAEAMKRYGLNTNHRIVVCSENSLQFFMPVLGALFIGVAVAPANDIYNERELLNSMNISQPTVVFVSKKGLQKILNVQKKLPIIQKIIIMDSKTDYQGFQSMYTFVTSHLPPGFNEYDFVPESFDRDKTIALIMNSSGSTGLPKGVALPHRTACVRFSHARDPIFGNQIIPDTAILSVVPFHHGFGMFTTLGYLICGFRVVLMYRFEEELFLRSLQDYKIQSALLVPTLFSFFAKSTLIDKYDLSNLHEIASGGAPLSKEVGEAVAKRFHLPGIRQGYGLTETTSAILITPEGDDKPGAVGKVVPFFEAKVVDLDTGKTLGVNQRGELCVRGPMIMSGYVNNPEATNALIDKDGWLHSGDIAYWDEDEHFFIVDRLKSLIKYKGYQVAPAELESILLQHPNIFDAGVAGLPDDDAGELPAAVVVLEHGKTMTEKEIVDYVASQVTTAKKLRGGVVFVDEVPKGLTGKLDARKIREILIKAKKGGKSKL", "assay": "inhibition of purified Photinus pyralis luciferase – biochemical, luminescence, dose response (AID 1891)"}}, "note": "The source made the active and inactive calls."}
{"smiles": "c1ccc(Nc2ccc(Nc3ccccc3)cc2)cc1", "values": [{"measurement": "AC50", "setting": "[1]", "value": "20 µM (inconclusive)"}, {"measurement": "AC50", "setting": "[2]", "value": "50.1 µM (inconclusive)"}, {"measurement": "AC50", "setting": "HeLa", "value": "43.6 µM (active)"}]}
{"smiles": "CCCCN1C(=O)/C(=C2\\SC(N3CCCCC3)=NC2=O)c2ccccc21", "values": [{"measurement": "IC50", "setting": "[3]", "value": "1.54 µM (active)"}, {"measurement": "IC50", "setting": "Nonstructural protein 1", "value": "27.4 µM (active)"}, {"measurement": "IC50", "setting": "[4]", "value": "> 66 µM (inactive)"}, {"measurement": "IC50", "setting": "[5]", "value": "2.13 µM (active)"}, {"measurement": "AC50", "setting": "HeLa", "value": "37.9 µM (active)"}, {"measurement": "IC50", "setting": "[6]", "value": "> 66 µM (inactive)"}]}
{"smiles": "COc1ccc(C(=O)c2sc3nc(-c4ccc(OC)cc4)ccc3c2N)cc1", "values": [{"measurement": "IC50", "setting": "Beta Lactamase", "value": "4.44 µM (active)"}, {"measurement": "IC50", "setting": "CHO", "value": "36.8 µM (inactive)"}, {"measurement": "IC50", "setting": "[7]", "value": "2.99 µM (not active)"}]}
{"smiles": "Cc1cccc(/C=C/C(=O)c2cc(Br)ccc(=O)c2O)c1", "values": [{"measurement": "EC50", "setting": "[8]", "value": "42.4 µM (inconclusive)"}, {"measurement": "CC50", "setting": "Vero [9]", "value": "15.1 µM (active)"}, {"measurement": "EC50", "setting": "[10]", "value": "11.6 µM (active)"}, {"measurement": "EC50", "setting": "[11]", "value": "9.67 µM (active)"}, {"measurement": "EC50", "setting": "[12]", "value": "> 120 µM (not active)"}, {"measurement": "CC50", "setting": "Vero [13]", "value": "7.95 µM (active)"}, {"measurement": "EC50", "setting": "Streptococcus", "value": "2.77 µM (active)"}, {"measurement": "EC50", "setting": "[14]", "value": "6.88 µM (active)"}, {"measurement": "EC50", "setting": "[15]", "value": "1.78 µM (active)"}, {"measurement": "EC50", "setting": "[16]", "value": "> 180 µM (inactive)"}, {"measurement": "EC50", "setting": "[17]", "value": "1.11 µM (active)"}]}
{"smiles": "COc1ccc(C(=O)Nc2ccc3[nH]ccc3c2)cc1", "values": [{"measurement": "EC50", "setting": "[11]", "value": "7.91 µM (active)"}, {"measurement": "EC50", "setting": "[12]", "value": "13.6 µM (active)"}, {"measurement": "AC50", "setting": "[18]", "value": "27.2 µM (active)"}, {"measurement": "AC50", "setting": "HEK293", "value": "2.59 µM (active)"}, {"measurement": "EC50", "setting": "[19]", "value": "5.61 µM (active)"}, {"measurement": "EC50", "setting": "[20]", "value": "3.28 µM (active)"}]}
